“And” between values parts separate entries of the source, which are not always exact repeats. Equal values may be shown once.
Details: 303.16 K, Liquid, Vibrating tube method

CCCCCCCCCC [decane]
Details	mass density
4941 kPa	726.2 kg/m3
4955 kPa	726.3 kg/m3
4969 kPa	726.3 kg/m3
4979 kPa	726.4 kg/m3
4994 kPa	726.4 kg/m3
5007 kPa	726.3 kg/m3
5019 kPa	726.4 kg/m3
5029 kPa	726.4 kg/m3
5041 kPa	726.3 kg/m3
5052 kPa	726.3 kg/m3
5065 kPa	726.4 kg/m3
5075 kPa	726.5 kg/m3
5091 kPa	726.4 kg/m3
5107 kPa	726.5 kg/m3
5119 kPa	726.6 kg/m3
5129 kPa	726.5 kg/m3
5140 kPa	726.5 kg/m3
5153 kPa	726.4 kg/m3
5167 kPa	726.5 kg/m3
5177 kPa	726.4 kg/m3
5193 kPa	726.4 kg/m3
5209 kPa	726.4 kg/m3
5220 kPa	726.6 kg/m3
5236 kPa	726.5 kg/m3
5251 kPa	726.5 kg/m3
5261 kPa	726.5 kg/m3
5276 kPa	726.5 kg/m3
5292 kPa	726.5 kg/m3
5309 kPa	726.5 kg/m3
5318 kPa	726.4 kg/m3
5331 kPa	726.6 kg/m3
5342 kPa	726.7 kg/m3
5359 kPa	726.6 kg/m3
5374 kPa	726.6 kg/m3
5385 kPa	726.6 kg/m3
5399 kPa	726.5 kg/m3
5412 kPa	726.5 kg/m3
5427 kPa	726.7 kg/m3
5443 kPa	726.6 kg/m3
5459 kPa	726.7 kg/m3
5473 kPa	726.7 kg/m3
5488 kPa	726.8 kg/m3
5501 kPa	726.6 kg/m3
5514 kPa	726.8 kg/m3
5532 kPa	726.8 kg/m3
5548 kPa	726.7 kg/m3
5562 kPa	726.8 kg/m3
5576 kPa	726.8 kg/m3
5593 kPa	726.8 kg/m3
5607 kPa	726.8 kg/m3
5626 kPa	726.8 kg/m3
5642 kPa	726.8 kg/m3
5655 kPa	726.8 kg/m3
5674 kPa	726.9 kg/m3
5690 kPa	726.9 kg/m3
5705 kPa	726.8 kg/m3
5723 kPa	727 kg/m3
5738 kPa	726.9 kg/m3
5751 kPa	726.9 kg/m3
5770 kPa	727 kg/m3
5791 kPa	727 kg/m3
5803 kPa	726.9 kg/m3
5819 kPa	727 kg/m3
5834 kPa	726.9 kg/m3
5851 kPa	726.9 kg/m3
5864 kPa	727 kg/m3
5873 kPa	727 kg/m3
5878 kPa	727 kg/m3
5884 kPa	727 kg/m3
5887 kPa	727.1 kg/m3
5896 kPa	727.1 kg/m3
5908 kPa	727.1 kg/m3
5926 kPa	727.1 kg/m3
5940 kPa	727 kg/m3
5954 kPa	727 kg/m3
5971 kPa	727.1 kg/m3
5986 kPa	727.1 kg/m3
6008 kPa	727 kg/m3
6029 kPa	727.1 kg/m3
6044 kPa	727.2 kg/m3
6063 kPa	727 kg/m3
6080 kPa	727.3 kg/m3
6100 kPa	727.2 kg/m3
6118 kPa	727.1 kg/m3
6139 kPa	727.3 kg/m3
6161 kPa	727.3 kg/m3
6178 kPa	727.2 kg/m3
6196 kPa	727.2 kg/m3
6201 kPa	727 kg/m3
6204 kPa	727.3 kg/m3
6205 kPa	727.3 kg/m3
6209 kPa	727.3 kg/m3
6210 kPa	727.2 kg/m3
6211 kPa	727.3 kg/m3
6212 kPa	727.3 kg/m3
6213 kPa	727.3 kg/m3
6214 kPa	727.2 kg/m3
6215 kPa	727.3 kg/m3 and 727.2 kg/m3
6216 kPa	727.2 kg/m3 and 727.3 kg/m3 and 727.4 kg/m3
6222 kPa	727.3 kg/m3
6239 kPa	727.2 kg/m3
6255 kPa	727.3 kg/m3
6262 kPa	727.4 kg/m3
6278 kPa	727.2 kg/m3
6282 kPa	727.3 kg/m3
6283 kPa	727.3 kg/m3
6306 kPa	727.4 kg/m3
6327 kPa	727.3 kg/m3
6345 kPa	727.4 kg/m3
6368 kPa	727.4 kg/m3
6383 kPa	727.4 kg/m3
6399 kPa	727.5 kg/m3
6414 kPa	727.4 kg/m3
6427 kPa	727.5 kg/m3
6451 kPa	727.5 kg/m3
6470 kPa	727.5 kg/m3
6485 kPa	727.6 kg/m3
6507 kPa	727.4 kg/m3
6524 kPa	727.5 kg/m3
6545 kPa	727.6 kg/m3
6560 kPa	727.5 kg/m3
6580 kPa	727.5 kg/m3
6598 kPa	727.6 kg/m3
6621 kPa	727.7 kg/m3
6642 kPa	727.6 kg/m3
6661 kPa	727.7 kg/m3
6684 kPa	727.7 kg/m3
6705 kPa	727.6 kg/m3
6721 kPa	727.6 kg/m3
6735 kPa	727.7 kg/m3
6759 kPa	727.7 kg/m3
6783 kPa	727.8 kg/m3
6799 kPa	727.7 kg/m3
6818 kPa	727.8 kg/m3
6841 kPa	727.7 kg/m3
6864 kPa	727.8 kg/m3
6881 kPa	727.9 kg/m3
6904 kPa	727.9 kg/m3
6929 kPa	727.9 kg/m3
6949 kPa	727.9 kg/m3
6969 kPa	727.8 kg/m3
6992 kPa	727.8 kg/m3
7009 kPa	728 kg/m3
7035 kPa	727.9 kg/m3
7053 kPa	728 kg/m3
7084 kPa	727.9 kg/m3
7102 kPa	728 kg/m3
7120 kPa	727.9 kg/m3
7147 kPa	728 kg/m3
7171 kPa	728 kg/m3
7193 kPa	728 kg/m3
7215 kPa	728.1 kg/m3
7235 kPa	728.1 kg/m3
7258 kPa	728.1 kg/m3
7279 kPa	728.1 kg/m3
7295 kPa	728 kg/m3
7309 kPa	728.1 kg/m3
7326 kPa	728.1 kg/m3
7343 kPa	728.2 kg/m3
7357 kPa	728.1 kg/m3
7371 kPa	728.2 kg/m3
7388 kPa	728.3 kg/m3
7403 kPa	728.1 kg/m3
7422 kPa	728.3 kg/m3
7442 kPa	728.3 kg/m3
7459 kPa	728.3 kg/m3
7474 kPa	728.2 kg/m3
7491 kPa	728.3 kg/m3
7511 kPa	728.2 kg/m3
7532 kPa	728.4 kg/m3
7549 kPa	728.3 kg/m3
7567 kPa	728.3 kg/m3
7588 kPa	728.4 kg/m3
7605 kPa	728.4 kg/m3
7626 kPa	728.4 kg/m3
7644 kPa	728.3 kg/m3
7665 kPa	728.5 kg/m3
7683 kPa	728.3 kg/m3
7699 kPa	728.5 kg/m3
7720 kPa	728.4 kg/m3
7737 kPa	728.4 kg/m3
7756 kPa	728.5 kg/m3
7783 kPa	728.5 kg/m3
7802 kPa	728.5 kg/m3
7819 kPa	728.5 kg/m3
7847 kPa	728.5 kg/m3
7867 kPa	728.5 kg/m3
7880 kPa	728.5 kg/m3
7901 kPa	728.6 kg/m3
7922 kPa	728.6 kg/m3
7936 kPa	728.6 kg/m3
7957 kPa	728.7 kg/m3
7974 kPa	728.6 kg/m3
7993 kPa	728.7 kg/m3
8014 kPa	728.6 kg/m3
8028 kPa	728.7 kg/m3
8052 kPa	728.6 kg/m3
8069 kPa	728.7 kg/m3
8088 kPa	728.7 kg/m3
8105 kPa	728.8 kg/m3
8124 kPa	728.7 kg/m3
8139 kPa	728.7 kg/m3
8157 kPa	728.8 kg/m3
8172 kPa	728.9 kg/m3
8191 kPa	728.8 kg/m3
8214 kPa	728.9 kg/m3
8229 kPa	728.9 kg/m3
8249 kPa	728.8 kg/m3
8265 kPa	728.8 kg/m3
8287 kPa	728.9 kg/m3
8313 kPa	729 kg/m3
8328 kPa	728.9 kg/m3
8349 kPa	728.9 kg/m3
8365 kPa	729 kg/m3
8382 kPa	729.1 kg/m3
8400 kPa	729.1 kg/m3
8417 kPa	729 kg/m3
8439 kPa	728.9 kg/m3
8459 kPa	729 kg/m3
8476 kPa	729.1 kg/m3
8493 kPa	729.1 kg/m3
8509 kPa	729 kg/m3
8529 kPa	729 kg/m3
8546 kPa	729.1 kg/m3
8561 kPa	729.2 kg/m3
8582 kPa	729.1 kg/m3
8601 kPa	729.2 kg/m3
8617 kPa	729.2 kg/m3
8632 kPa	729.2 kg/m3
8647 kPa	729.2 kg/m3
8663 kPa	729.2 kg/m3
8682 kPa	729.2 kg/m3
8699 kPa	729.2 kg/m3
8715 kPa	729.2 kg/m3
8730 kPa	729.2 kg/m3
8742 kPa	729.3 kg/m3
8752 kPa	729.3 kg/m3
8768 kPa	729.2 kg/m3
8778 kPa	729.3 kg/m3
8792 kPa	729.2 kg/m3
8807 kPa	729.4 kg/m3
8821 kPa	729.3 kg/m3
8831 kPa	729.3 kg/m3
8847 kPa	729.2 kg/m3
8862 kPa	729.3 kg/m3
8874 kPa	729.2 kg/m3
8884 kPa	729.4 kg/m3
8895 kPa	729.3 kg/m3
8905 kPa	729.3 kg/m3
8920 kPa	729.4 kg/m3
8936 kPa	729.4 kg/m3
8948 kPa	729.4 kg/m3
8961 kPa	729.5 kg/m3
8973 kPa	729.4 kg/m3
8986 kPa	729.4 kg/m3
8998 kPa	729.5 kg/m3
9014 kPa	729.5 kg/m3
9025 kPa	729.4 kg/m3
9040 kPa	729.5 kg/m3
9051 kPa	729.5 kg/m3
9064 kPa	729.4 kg/m3
9075 kPa	729.5 kg/m3
9092 kPa	729.6 kg/m3
9107 kPa	729.6 kg/m3
9118 kPa	729.5 kg/m3
9133 kPa	729.6 kg/m3
9151 kPa	729.6 kg/m3
9166 kPa	729.5 kg/m3
9179 kPa	729.5 kg/m3
9192 kPa	729.6 kg/m3
9204 kPa	729.6 kg/m3
9219 kPa	729.7 kg/m3
9237 kPa	729.6 kg/m3
9251 kPa	729.6 kg/m3

Reference: the NIST ThermoML archive (doi:10.1021/je800110r)
